Reference: patent US20200197365A1, “TREATMENT WITH NMDA RECEPTOR MODULATORS” (Naurex Inc., priority 2017, published 2020)
Residues, ends and D or L forms follow the SMILES beside them.

System: Male rats
Assay: Sleep-wake cycle analysis by telemetric EEG recording (23 hours) in rats
Assay type: in vivo, rat
Details: for latency to SWS onset (change): FIG. 1A; for latency to REM sleep onset (change): FIG. 1B
Description: Male rats were anesthetized and surgically implanted with 2 surface electrodes in the frontoparietal cortex and 2 depth electrodes in the CA1 region of the hippocampus (AP+5.0 mm, L±2.5 mm, V+7.0 mm). After ≥10 days recovery, telemetric transmitters were connected to electrodes for electroencephalographic (EEG) recordings. On the day of experiment, rats were injected at the beginning of the light phase with rapastinel (3, 10, or 30 mg/kg, IV), ketamine (30 mg/kg, IP), or the positive control zolpidem (12 mg/kg, PO) using a treatment schedule based on a cross-over design (n=9-10/dose/group) in which rats received zolpidem or rapastinel at session 1 and then rapastinel and/or ketamine at sessions 2-4. Physiological saline was used as the vehicle control
Sleep-wake cycles were measured continuously following rapastinel treatment for the next 23 hours and were analyzed based on a spectral power analysis. Latencies to first occurrence of SWS and REM sleep, as well as percent time spent in SWS, REM sleep, and wakefulness, were calculated for the total recording sessions (23 hours), the half cycles (0-12 and 12-23 hours), and 5 time segments (0-4, 4-8, 8-12, 12-18, and 18-23 hours). Depth of SWS (defined as the ratio between alpha and delta spectral power) was also calculated. Differences between vehicle and test drugs were calculated for all variables, for each animal, and for the means of the animals per treatment group, and analyzed using a paired t-test

[1] = ketamine 30 mg/kg IP, 12-23 hours post-dose, P<0.05
[2] = rapastinel, entire recording session, FIG. 2

CNC1(c2ccccc2Cl)CCCCC1=O (centres unmarked) [Ketamine, ketamine]
alpha/delta ratio (depth of SWS) (ketamine 30 mg/kg IP, 0-4 hours post-dose): concomitant decrease | duration of SWS (ketamine 30 mg/kg IP, 0-4 hours post-dose, FIG. 2A): decreased | duration of REM sleep (ketamine 30 mg/kg IP, 0-4 hours post-dose, P<0.001): decreased | waking (duration) (ketamine 30 mg/kg IP, 12-23 hours post-dose, P<0.01): small but significant decrease | REM sleep (duration) [1]: compensatory increase | SWS duration [1]: significantly increased | percentage of active waking [1]: significantly decreased | latency to SWS onset (change) (ketamine 30 mg/kg IP, P<0.001): +393% | latency to REM sleep onset (change) (ketamine 30 mg/kg IP, P<0.001): +104% | duration of waking (ketamine 30 mg/kg IP, first 4 hours post-dose, P<0.001): significantly increased

C[C@@H](O)[C@H](N)C(=O)N1CCC[C@H]1C(=O)N1CCC[C@H]1C(=O)N[C@H](C(N)=O)[C@@H](C)O [Rapastinel, rapastinel] (H-TPPT-NH2)
latency to SWS onset (change) (rapastinel 3 mg/kg IV, P<0.05): −33% | percentage of active waking (rapastinel 30 mg/kg IV, 8-12 hours post-dose, P<0.01): small but significant decrease | percentage of active waking (rapastinel 30 mg/kg IV, 18-23 hours post-dose, P<0.05): small but significant decrease | latency to REM sleep onset (rapastinel 3, 10, and 30 mg/kg IV): no significant effect | duration of REM sleep (rapastinel 3, 10, and 30 mg/kg IV, FIG. 3): did not have a significant effect | duration of waking (rapastinel 3, 10, or 30 mg/kg IV, FIG. 4A): no effect | latency to SWS onset (rapastinel 10 and 30 mg/kg IV): no significant effect | percentage of active waking (rapastinel, all doses and time segments other than the 30 mg/kg exceptions, FIG. 4B): no effect | depth of SWS [2]: no significant effect | duration of SWS [2]: no significant effect

Cc1ccc(-c2nc3ccc(C)cn3c2CC(=O)N(C)C)cc1 [Zolpidem, zolpidem]
percentage of active waking (zolpidem 12 mg/kg PO, 0-12 hours post-dose, P<0.05): significantly decreased | duration of REM sleep (zolpidem 12 mg/kg PO, 4-8 hours post-dose, P<0.05): significantly decreased | depth of SWS (zolpidem 12 mg/kg PO, >8 hours post-dose, P<0.05, FIG. 2B): significantly increased | duration of waking (zolpidem 12 mg/kg PO, FIG. 4A): no effect | latency to REM sleep onset (change) (zolpidem 12 mg/kg PO, P<0.01): +67% | latency to SWS onset (change) (zolpidem 12 mg/kg PO, P<0.05): −50%
